In publication PMC3521580 (Journal of medicinal chemistry, 2011):
Where two headings read alike, the source gives them in different places. Non-standard residues stand in square brackets, D forms with d. Residues, ends and D or L forms follow the SMILES beside them. *: point of attachment. X1 = CC(=O)NCCCC(CCCNC(C)=O)(NC(=O)CNC(=O)Cn1cc(CCC(=O)*)nn1)C(=O)NCCC(N)=O

Experiments:
[1] = target: T1, human MC4R (Homo sapiens, UniProt P32245); assay: Time resolved fluorescence competition binding assay against Eu-NDP-α-MSH; settings: for Relative potency to Ac-MSH(4): Table 2
T1 sequence (P32245 whole entry): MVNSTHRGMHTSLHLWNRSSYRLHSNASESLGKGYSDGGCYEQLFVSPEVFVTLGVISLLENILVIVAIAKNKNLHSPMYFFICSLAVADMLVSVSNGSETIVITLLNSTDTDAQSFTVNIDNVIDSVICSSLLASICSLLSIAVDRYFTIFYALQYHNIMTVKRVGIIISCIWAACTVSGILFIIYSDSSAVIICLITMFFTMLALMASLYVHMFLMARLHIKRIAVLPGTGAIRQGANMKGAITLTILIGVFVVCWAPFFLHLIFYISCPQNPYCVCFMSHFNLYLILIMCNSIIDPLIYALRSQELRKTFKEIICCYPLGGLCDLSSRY

[2] = target: T1, human MC4R; assay: cAMP biological response chemiluminescent immunoassay in Hek293/hMC4R cells; assay type: cell-based; settings: hMC4R cells, result in words

SMILES | IC50 [1] | IC50 ([1]; IC50, MC4R binding affinity as quoted in the text) | Relative potency to Ac-MSH(4) ([1]; ratio of IC50 values, fold) | Relative potency to NB397 ([1]; Table 3, ratio of IC50 values, fold) | cAMP production, agonist activity at MC4R [2]
CC(=O)N[C@@H](CCCCNC(=O)CCc1cn(CC(=O)NCCCC(CCCNC(=O)Cn2cc(CCC(=O)NCCCC[C@H](NC(C)=O)C(=O)N[C@@H](Cc3c[nH]cn3)C(=O)N[C@H](Cc3ccccc3)C(=O)N[C@@H](CCCNC(=N)N)C(=O)N[C@@H](Cc3c[nH]c4ccccc34)C(N)=O)nn2)(NC(=O)CNC(=O)Cn2cc(CCC(=O)NCCCC[C@H](NC(C)=O)C(=O)N[C@@H](Cc3c[nH]cn3)C(=O)N[C@H](Cc3ccccc3)C(=O)N[C@@H](CCCNC(=N)N)C(=O)N[C@@H](Cc3c[nH]c4ccccc34)C(N)=O)nn2)C(=O)NCCC(N)=O)nn1)C(=O)N[C@@H](Cc1c[nH]cn1)C(=O)N[C@H](Cc1ccccc1)C(=O)N[C@@H](CCCNC(=N)N)C(=O)N[C@@H](Cc1c[nH]c2ccccc12)C(N)=O (stereo partly shown) [NB297] | 71 ± 5.3 nM | ~72 nM | 64 | – | –
CC(=O)N[C@@H](CCCCNC(=O)CCc1cn(CC(=O)NCC(=O)N2CCC[C@H]2C(=O)NCC(=O)NCCCC(CCCNC(=O)CNC(=O)[C@@H]2CCCN2C(=O)CNC(=O)Cn2cc(CCC(=O)NCCCC[C@H](NC(C)=O)C(=O)N[C@@H](Cc3c[nH]cn3)C(=O)N[C@H](Cc3ccccc3)C(=O)N[C@@H](CCCNC(=N)N)C(=O)N[C@@H](Cc3c[nH]c4ccccc34)C(N)=O)nn2)(NC(=O)CNC(=O)CNC(=O)[C@@H]2CCCN2C(=O)CNC(=O)Cn2cc(CCC(=O)NCCCC[C@H](NC(C)=O)C(=O)N[C@@H](Cc3c[nH]cn3)C(=O)N[C@H](Cc3ccccc3)C(=O)N[C@@H](CCCNC(=N)N)C(=O)N[C@@H](Cc3c[nH]c4ccccc34)C(N)=O)nn2)C(=O)NCCC(N)=O)nn1)C(=O)N[C@@H](Cc1c[nH]cn1)C(=O)N[C@H](Cc1ccccc1)C(=O)N[C@@H](CCCNC(=N)N)C(=O)N[C@@H](Cc1c[nH]c2ccccc12)C(N)=O (stereo partly shown) [NB298] | 220 ± 59 nM | – | 21 | – | –
CC(=O)N[C@@H](CCCCNC(=O)CCc1cn(CC(=O)NCC(=O)N2CCC[C@H]2C(=O)NCC(=O)N2CCC[C@H]2C(=O)NCC(=O)N2CCC[C@H]2C(=O)NCC(=O)NCCCC(CCCNC(=O)CNC(=O)[C@@H]2CCCN2C(=O)CNC(=O)[C@@H]2CCCN2C(=O)CNC(=O)[C@@H]2CCCN2C(=O)CNC(=O)Cn2cc(CCC(=O)NCCCC[C@H](NC(C)=O)C(=O)N[C@@H](Cc3c[nH]cn3)C(=O)N[C@H](Cc3ccccc3)C(=O)N[C@@H](CCCNC(=N)N)C(=O)N[C@@H](Cc3c[nH]c4ccccc34)C(N)=O)nn2)(NC(=O)CNC(=O)CNC(=O)[C@@H]2CCCN2C(=O)CNC(=O)[C@@H]2CCCN2C(=O)CNC(=O)[C@@H]2CCCN2C(=O)CNC(=O)Cn2cc(CCC(=O)NCCCC[C@H](NC(C)=O)C(=O)N[C@@H](Cc3c[nH]cn3)C(=O)N[C@H](Cc3ccccc3)C(=O)N[C@@H](CCCNC(=N)N)C(=O)N[C@@H](Cc3c[nH]c4ccccc34)C(N)=O)nn2)C(=O)NCCC(N)=O)nn1)C(=O)N[C@@H](Cc1c[nH]cn1)C(=O)N[C@H](Cc1ccccc1)C(=O)N[C@@H](CCCNC(=N)N)C(=O)N[C@@H](Cc1c[nH]c2ccccc12)C(N)=O (stereo partly shown) [NB300] | 620 ± 51 nM | – | 7 | – | –
CC(=O)N[C@@H](CCCCNC(=O)CCc1cn(CC(=O)NCC(=O)N2CCC[C@H]2C(=O)NCC(=O)N2CCC[C@H]2C(=O)NCC(=O)NCCCC(CCCNC(=O)CNC(=O)[C@@H]2CCCN2C(=O)CNC(=O)[C@@H]2CCCN2C(=O)CNC(=O)Cn2cc(CCC(=O)NCCCC[C@H](NC(C)=O)C(=O)N[C@@H](Cc3c[nH]cn3)C(=O)N[C@H](Cc3ccccc3)C(=O)N[C@@H](CCCNC(=N)N)C(=O)N[C@@H](Cc3c[nH]c4ccccc34)C(N)=O)nn2)(NC(=O)CNC(=O)CNC(=O)[C@@H]2CCCN2C(=O)CNC(=O)[C@@H]2CCCN2C(=O)CNC(=O)Cn2cc(CCC(=O)NCCCC[C@H](NC(C)=O)C(=O)N[C@@H](Cc3c[nH]cn3)C(=O)N[C@H](Cc3ccccc3)C(=O)N[C@@H](CCCNC(=N)N)C(=O)N[C@@H](Cc3c[nH]c4ccccc34)C(N)=O)nn2)C(=O)NCCC(N)=O)nn1)C(=O)N[C@@H](Cc1c[nH]cn1)C(=O)N[C@H](Cc1ccccc1)C(=O)N[C@@H](CCCNC(=N)N)C(=O)N[C@@H](Cc1c[nH]c2ccccc12)C(N)=O (stereo partly shown) [NB299] | 410 ± 70 nM | – | 11 | – | –
CC(=O)NCC(=O)NC(CCCNC(=O)Cn1cc(CCC(=O)NCCCC[C@H](NC(C)=O)C(=O)N[C@@H](Cc2c[nH]cn2)C(=O)N[C@H](Cc2ccccc2)C(=O)N[C@@H](CCCNC(=N)N)C(=O)N[C@@H](Cc2c[nH]c3ccccc23)C(N)=O)nn1)(CCCNC(=O)Cn1cc(CCC(=O)NCCCC[C@H](NC(C)=O)C(=O)N[C@@H](Cc2c[nH]cn2)C(=O)N[C@H](Cc2ccccc2)C(=O)N[C@@H](CCCNC(=N)N)C(=O)N[C@@H](Cc2c[nH]c3ccccc23)C(N)=O)nn1)C(=O)NCCC(N)=O (stereo partly shown) [NB399] | – | – | – | 16 | agonists
CC(=O)NCCCC(CCCNC(C)=O)(NC(=O)CNC(=O)Cn1cc(CCC(=O)NCCCC[C@H](NC(C)=O)C(=O)N[C@@H](Cc2c[nH]cn2)C(=O)N[C@H](Cc2ccccc2)C(=O)N[C@@H](CCCNC(=N)N)C(=O)N[C@@H](Cc2c[nH]c3ccccc23)C(N)=O)nn1)C(=O)NCCC(N)=O [NB397] (Ac-K(X1)H[dF]RW-NH2; N-terminus assumed) | – | – | – | – | agonists

The next lines start with results.

IC50 [1] | IC50 ([1]; IC50, MC4R binding affinity as quoted in the text) | Relative potency to Ac-MSH(4) ([1]; ratio of IC50 values, fold) | SMILES | Relative potency to NB397 ([1]; Table 3, ratio of IC50 values, fold) | cAMP production, agonist activity at MC4R [2]
120 ± 10 nM | – | 38 | CC(=O)N[C@@H](CCCCNC(=O)CCc1cn(CC(=O)NCCC(=O)NCCC(=O)NCCCC(CCCNC(=O)CCNC(=O)CCNC(=O)Cn2cc(CCC(=O)NCCCC[C@H](NC(C)=O)C(=O)N[C@@H](Cc3c[nH]cn3)C(=O)N[C@H](Cc3ccccc3)C(=O)N[C@@H](CCCNC(=N)N)C(=O)N[C@@H](Cc3c[nH]c4ccccc34)C(N)=O)nn2)(NC(=O)CNC(=O)CCNC(=O)CCNC(=O)Cn2cc(CCC(=O)NCCCC[C@H](NC(C)=O)C(=O)N[C@@H](Cc3c[nH]cn3)C(=O)N[C@H](Cc3ccccc3)C(=O)N[C@@H](CCCNC(=N)N)C(=O)N[C@@H](Cc3c[nH]c4ccccc34)C(N)=O)nn2)C(=O)NCCC(N)=O)nn1)C(=O)N[C@@H](Cc1c[nH]cn1)C(=O)N[C@H](Cc1ccccc1)C(=O)N[C@@H](CCCNC(=N)N)C(=O)N[C@@H](Cc1c[nH]c2ccccc12)C(N)=O (stereo partly shown) [NB302] | – | –
88 ± 12 nM | – | 52 | CC(=O)N[C@@H](CCCCNC(=O)CCc1cn(CC(=O)NCCC(=O)NCCCC(CCCNC(=O)CCNC(=O)Cn2cc(CCC(=O)NCCCC[C@H](NC(C)=O)C(=O)N[C@@H](Cc3c[nH]cn3)C(=O)N[C@H](Cc3ccccc3)C(=O)N[C@@H](CCCNC(=N)N)C(=O)N[C@@H](Cc3c[nH]c4ccccc34)C(N)=O)nn2)(NC(=O)CNC(=O)CCNC(=O)Cn2cc(CCC(=O)NCCCC[C@H](NC(C)=O)C(=O)N[C@@H](Cc3c[nH]cn3)C(=O)N[C@H](Cc3ccccc3)C(=O)N[C@@H](CCCNC(=N)N)C(=O)N[C@@H](Cc3c[nH]c4ccccc34)C(N)=O)nn2)C(=O)NCCC(N)=O)nn1)C(=O)N[C@@H](Cc1c[nH]cn1)C(=O)N[C@H](Cc1ccccc1)C(=O)N[C@@H](CCCNC(=N)N)C(=O)N[C@@H](Cc1c[nH]c2ccccc12)C(N)=O (stereo partly shown) [NB301] | – | –
